Assay results as given in patent publication US10913727B2, “Modulators of the integrated stress pathway” (Calico Life Sciences LLC, priority 2016, dated 2021).
pEC50: −log10 of the molar value.

Tested on: HEK293T cells carrying the ATF4 luciferase reporter
Assay: ATF4-Luc assay, in vitro model of Vanishing Cell White Matter Disease (VWMD)
Type: cell-based
Conditions: Homo sapiens, HEK-293T, 1 μg/mL tunicamycin, 7 hours, One Glo luminescence
Summary of the method: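 Stable HEK293T line with human ATF4 5′-UTR–firefly luciferase reporter treated with 1 μg/mL tunicamycin plus 200 nM compound for 7 h. Luminescence read; EC50 derived.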

Row | SMILES | pEC50
1 | O=C(COc1ccc(Cl)c(Cl)c1)NC12CC(NC(=O)c3cnc(C(F)F)cn3)(C1)C2 [Compound 201, N-{3-[2-(3,4-dichlorophenoxy)acetamido]bicyclo[1.1.1]pentan-1-yl}-5-(difluoromethyl)pyrazine-2-carboxamide] | > 7.30
2 | O=C(COc1ccc(Cl)cc1)NC12CC(NC(=O)c3cnc(C(F)F)cn3)(C1)C2 [Compound 202, N-{3-[2-(4-chlorophenoxy)acetamido]bicyclo[1.1.1]pentan-1-yl}-5-(difluoromethyl)pyrazine-2-carboxamide] | 6.60 to 7.30
3 | O=C(COc1ccc(Cl)c(F)c1)NC12CC(NC(=O)c3ccc(C(F)(F)F)nc3)(C1)C2 [Compound 203, N-{3-[2-(4-chloro-3-fluorophenoxy)acetamido]bicyclo[1.1.1]pentan-1-yl}-6-(trifluoromethyl)pyridine-3-carboxamide] | 5.70 to 6.00
4 | CCOC(=O)c1ccnc(C(=O)NC23CC(NC(=O)COc4ccc(Cl)c(F)c4)(C2)C3)c1 [Compound 204, ethyl 2-({3-[2-(4-chloro-3-fluorophenoxy)acetamido]bicyclo[1.1.1]pentan-1-yl}carbamoyl)pyridine-4-carboxylate] | 6.60 to 7.30
5 | O=C(COc1ccc(Cl)c(F)c1)NC12CC(NC(=O)c3ccc4[nH]c(=O)[nH]c4n3)(C1)C2 [Compound 205, N-{3-[2-(4-chloro-3-fluorophenoxy)acetamido]bicyclo[1.1.1]pentan-1-yl}-2-oxo-2,3-dihydro-1H-imidazo[4,5-b]pyridine-5-carboxamide] | < 5.70
6 | N#CCc1ccccc1C(=O)NC12CC(NC(=O)COc3ccc(Cl)c(F)c3)(C1)C2 [Compound 206, N-{3-[2-(4-chloro-3-fluorophenoxy)acetamido]bicyclo[1.1.1]pentan-1-yl}-2-(cyanomethyl)benzamide] | 6.00 to 6.60
7 | O=C(COc1ccc(Cl)c(F)c1)NC12CC(NC(=O)c3ccc(C(F)F)nc3)(C1)C2 [Compound 207, N-{3-[2-(4-chloro-3-fluorophenoxy)acetamido]bicyclo[1.1.1]pentan-1-yl}-6-(difluoromethyl)pyridine-3-carboxamide] | 6.60 to 7.30
8 | CC(C)(O)c1ccc(C(=O)NC23CC(NC(=O)COc4ccc(Cl)c(F)c4)(C2)C3)cc1 [Compound 208, N-{3-[2-(4-chloro-3-fluorophenoxy)acetamido]bicyclo[1.1.1]pentan-1-yl}-4-(2-hydroxypropan-2-yl)benzamide] | 5.70 to 6.00
9 | N#Cc1cccc(C(=O)NC23CCC(NC(=O)COc4ccc(Cl)c(F)c4)(CC2)CC3O)c1 (stereo not drawn) [Compound 209, N-{4-[2-(4-chloro-3-fluorophenoxy)acetamido]-2-hydroxybicyclo[2.2.2]octan-1-yl}-3-cyanobenzamide] | 6.00 to 6.60
10 | N#Cc1ccc(C(=O)NC23CCC(NC(=O)COc4ccc(Cl)c(F)c4)(CC2)CC3O)cc1 (stereo not drawn) [Compound 210, N-{4-[2-(4-chloro-3-fluorophenoxy)acetamido]-2-hydroxybicyclo[2.2.2]octan-1-yl}-4-cyanobenzamide] | 6.00 to 6.60
11 | O=C(COc1ccc(Cl)c(F)c1)NC12CCC(NC(=O)c3ccc4c(c3)OCO4)(CC1)C(O)C2 (stereo not drawn) [Compound 211, N-{4-[2-(4-chloro-3-fluorophenoxy)acetamido]-2-hydroxybicyclo[2.2.2]octan-1-yl}-2H-1,3-benzodioxole-5-carboxamide] | 5.70 to 6.00
12 | O=C(COc1ccc(Cl)c(F)c1)NC12CCC(NC(=O)c3cscn3)(CC1)C(O)C2 (stereo not drawn) [Compound 212, N-{4-[2-(4-chloro-3-fluorophenoxy)acetamido]-2-hydroxybicyclo[2.2.2]octan-1-yl}-1,3-thiazole-4-carboxamide] | 6.00 to 6.60
13 | O=C(COc1ccc(Cl)c(F)c1)NC12CCC(NC(=O)c3cncs3)(CC1)C(O)C2 (stereo not drawn) [Compound 213, N-{4-[2-(4-chloro-3-fluorophenoxy)acetamido]-2-hydroxybicyclo[2.2.2]octan-1-yl}-1,3-thiazole-5-carboxamide] | 6.00 to 6.60
14 | O=C(COc1ccc(Cl)c(F)c1)NC12CCC(NC(=O)c3cn[nH]c3)(CC1)C(O)C2 (stereo not drawn) [Compound 214, N-{4-[2-(4-chloro-3-fluorophenoxy)acetamido]-2-hydroxybicyclo[2.2.2]octan-1-yl}-1H-pyrazole-4-carboxamide] | < 5.70
15 | O=C(COc1ccc(Cl)c(F)c1)NC12CCC(NC(=O)c3ccno3)(CC1)C(O)C2 (stereo not drawn) [Compound 215, N-{4-[2-(4-chloro-3-fluorophenoxy)acetamido]-2-hydroxybicyclo[2.2.2]octan-1-yl}-1,2-oxazole-5-carboxamide] | 6.60 to 7.30
16 | Cc1noc(C)c1C(=O)NC12CCC(NC(=O)COc3ccc(Cl)c(F)c3)(CC1)CC2O (stereo not drawn) [Compound 216, N-{4-[2-(4-chloro-3-fluorophenoxy)acetamido]-2-hydroxybicyclo[2.2.2]octan-1-yl}-3,5-dimethyl-1,2-oxazole-4-carboxamide] | < 5.70
17 | O=C(COc1ccc(Cl)c(F)c1)NC12CCC(NC(=O)c3cccnc3)(CC1)C(O)C2 (stereo not drawn) [Compound 217, N-{4-[2-(4-chloro-3-fluorophenoxy)acetamido]-2-hydroxybicyclo[2.2.2]octan-1-yl}pyridine-3-carboxamide] | 5.70 to 6.00

Row | SMILES | pEC50
18 | O=C(COc1ccc(Cl)c(F)c1)NC12CCC(NC(=O)c3ccncc3)(CC1)C(O)C2 (stereo not drawn) [Compound 218, N-{4-[2-(4-chloro-3-fluorophenoxy)acetamido]-2-hydroxybicyclo[2.2.2]octan-1-yl}pyridine-4-carboxamide] | < 5.70
19 | O=C(COc1ccc(Cl)c(F)c1)NC12CCC(NC(=O)c3cnccn3)(CC1)C(O)C2 (stereo not drawn) [Compound 219, N-{4-[2-(4-chloro-3-fluorophenoxy)acetamido]-2-hydroxybicyclo[2.2.2]octan-1-yl}pyrazine-2-carboxamide] | 6.60 to 7.30
20 | Cc1cnc(C(=O)NC23CCC(NC(=O)COc4ccc(Cl)c(F)c4)(CC2)CC3O)cn1 (stereo not drawn) [Compound 220, N-{4-[2-(4-chloro-3-fluorophenoxy)acetamido]-2-hydroxybicyclo[2.2.2]octan-1-yl}-5-methylpyrazine-2-carboxamide] | 6.60 to 7.30
21 | Cc1c(C(=O)NC23CCC(NC(=O)COc4ccc(Cl)c(F)c4)(CC2)CC3O)cnn1-c1ccccc1 (stereo not drawn) [Compound 221, N-{4-[2-(4-chloro-3-fluorophenoxy)acetamido]-2-hydroxybicyclo[2.2.2]octan-1-yl}-5-methyl-1-phenyl-1H-pyrazole-4-carboxamide] | 5.70 to 6.00
22 | O=C(COc1ccc(Cl)c(F)c1)NC12CCC(NC(=O)c3coc4c3C(=O)CCC4)(CC1)C(O)C2 (stereo not drawn) [Compound 222, N-{4-[2-(4-chloro-3-fluorophenoxy)acetamido]-2-hydroxybicyclo[2.2.2]octan-1-yl}-4-oxo-4,5,6,7-tetrahydro-1-benzofuran-3-carboxamide] | < 5.70
23 | O=C(COc1ccc(Cl)c(F)c1)NC12CCC(NC(=O)c3cnc4ccccc4n3)(CC1)C(O)C2 (stereo not drawn) [Compound 223, N-{4-[2-(4-chloro-3-fluorophenoxy)acetamido]-2-hydroxybicyclo[2.2.2]octan-1-yl}quinoxaline-2-carboxamide] | 6.60 to 7.30
24 | O=C(COc1ccc(Cl)c(F)c1)NC12CCC(NC(=O)c3ccn[nH]3)(CC1)C(O)C2 (stereo not drawn) [Compound 224, N-{4-[2-(4-chloro-3-fluorophenoxy)acetamido]-2-hydroxybicyclo[2.2.2]octan-1-yl}-1H-pyrazole-5-carboxamide] | 6.00 to 6.60
25 | O=C(COc1ccc(Cl)c(F)c1)NC12CCC(NC(=O)c3ccc(OC(F)(F)F)cc3)(CC1)C(O)C2 (stereo not drawn) [Compound 225, N-{4-[2-(4-chloro-3-fluorophenoxy)acetamido]-2-hydroxybicyclo[2.2.2]octan-1-yl}-4-(trifluoromethoxy)benzamide] | 6.60 to 7.30
26 | O=C(COc1ccc(Cl)c(F)c1)NC12CCC(NC(=O)c3ccncn3)(CC1)C(O)C2 (stereo not drawn) [Compound 226, N-{4-[2-(4-chloro-3-fluorophenoxy)acetamido]-2-hydroxybicyclo[2.2.2]octan-1-yl}pyrimidine-4-carboxamide] | 6.00 to 6.60
27 | O=C(COc1ccc(Cl)c(F)c1)NC12CCC(NC(=O)c3cccnn3)(CC1)C(O)C2 (stereo not drawn) [Compound 227, N-{4-[2-(4-chloro-3-fluorophenoxy)acetamido]-2-hydroxybicyclo[2.2.2]octan-1-yl}pyridazine-3-carboxamide] | 6.00 to 6.60
28 | Cc1ccc(C(=O)NC23CCC(NC(=O)COc4ccc(Cl)c(F)c4)(CC2)CC3O)cn1 (stereo not drawn) [Compound 228, N-{4-[2-(4-chloro-3-fluorophenoxy)acetamido]-2-hydroxybicyclo[2.2.2]octan-1-yl}-6-methylpyridine-3-carboxamide] | < 5.70
29 | O=C(COc1ccc(Cl)c(F)c1)NC12CCC(NC(=O)c3cnc(C(F)F)cn3)(CC1)CC2O (stereo not drawn) [Compound 229, N-{4-[2-(4-chloro-3-fluorophenoxy)acetamido]-3-hydroxybicyclo[2.2.2]octan-1-yl}-5-(difluoromethyl)pyrazine-2-carboxamide] | 6.60 to 7.30
30 | O=C(COc1ccc(Cl)c(F)c1)NC12CCC(NC(=O)c3ccc(F)cn3)(CC1)CC2O (stereo not drawn) [Compound 230, N-{4-[2-(4-chloro-3-fluorophenoxy)acetamido]-3-hydroxybicyclo[2.2.2]octan-1-yl}-5-fluoropyridine-2-carboxamide] | 6.60 to 7.30
31 | O=C(COc1ccc(Cl)c(F)c1)NC12CCC(NC(=O)c3ccc(F)cc3)(CC1)CC2O (stereo not drawn) [Compound 231, N-{4-[2-(4-chloro-3-fluorophenoxy)acetamido]-3-hydroxybicyclo[2.2.2]octan-1-yl}-4-fluorobenzamide] | 6.60 to 7.30
32 | CC(C)Oc1ccc(C(=O)NC23CC(NC(=O)COc4ccc(Cl)c(F)c4)(C2)C3)cc1 [Compound 232, N-{3-[2-(4-chloro-3-fluorophenoxy)acetamido]bicyclo[1.1.1]pentan-1-yl}-4-[(propan-2-yl)oxy]benzamide] | 6.60 to 7.30
33 | O=C(COc1ccc(Cl)c(F)c1)NC12CC(NC(=O)c3ccc(C(F)F)cn3)(C1)C2 [Compound 233, N-{3-[2-(4-chloro-3-fluorophenoxy)acetamido]bicyclo[1.1.1]pentan-1-yl}-5-(difluoromethyl)pyridine-2-carboxamide] | > 7.30
